Test results: patent US20060025482A1, “(-)-Hydroxycitric acid for the modulation of angiotensin-converting enzyme” (priority 2004, published 2006)

Experiments:
[1] = treated rats; cited from earlier work
[2] = Blood chemistries in Sprague-Dawley rats (Example 1); assay type: in vivo, rat; details: SD rats; for average insulin concentrations compared to control: differences not significant using ANOVA, all dose groups
Excerpt: (§1) A know effect of ACE inhibitors is a reduction in elevated systolic blood pressure. To test this, the following protocol was employed: Sprague-Dawley Rats (SD), approximately 8 weeks of age werw obtained. Six groups of eight male SD received the same […] rat chow manufactured to specifications. The special diets derived 30% of calories from fats (one half from lard and one half from corn oil), 50% from carbohydrates, and 20% from proteins. Twenty percent of dietary calories was derived from sucrose and the preponderance of the remaining carbohydrate calories was derived from dextrin. During weekdays (M-F), each group was gavaged twice daily with a solution containing a commercial source of potassium hydroxycitrate (KHCA), a commercial source of potassium-calcium hydroxycitrate (KCaHCA), or a pre-commercial non-salt source of potassium-magnesium hydroxycitrate (KMgHCA, listed as KMgHCA L-Low, M-Intermediate or H-High depending upon the dose). Over the weekends (S-S), a similar quantity of the weekday daily dose was added to twenty grams of food, that is, an amount of food estimated to be close to the daily intake of the animals. At initiation of study and four weeks, and eight weeks later, bloods were drawn from all SD for routine blood chemistries. Body weight (BW) was measured weekly and systolic blood pressure (SBP) was measured every two weeks.
(§2) Statistical Analyses: Results are presented as mean±SEM. Many statistics were performed by one-way analysis of variance (ANOVA). SBP and BW were examined by two-way analyses of variance (one factor being dietary group and the second factor being time of examination). Where a significant effect of diet was detected by ANOVA (p<0.05), the Dunnett t test was used to establish which differences between means reached statistical significance (p<0.05). If a Student's t test was employed, this is noted.

[3] = Earlier study of SBP with a KCaHCA salt, not described; assay type: in vivo; details: 120 mg HCA per day
Sprague-Dawley Rats = assay: Systolic blood pressure by tail plethysmography in Sprague-Dawley rats on special diet (Example 1); assay type: in vivo, rat; details: SD rats
Excerpt: as §1
The HCA dosages in the arms varied. The dosage used in the KHCA arm was extrapolated from the recommended 1,500 mg HCA per day for humans consuming a normal diet (i.e., ≧30% calories derived from fats) advocated by a commercial seller of KHCA and claimed to have produced acceptable clinical results. The approximate equivalent for the rat model is 35.4 mg HCA per day, which we increased to 38.4 mg HCA per day for convenience in employing a 48% HCA potassium salt and to remain safely on the high side in practice. For the sake of comparison, a commercial KCaHCA salt (60% HCA) was chosen and delivered at an HCA dosage level of 48 mg per day, which slightly exceeded the lowest dosage of HCA found to be efficacious for inhibition of weight gain in rats in the early pharmaceutical trials (45.4 mg/day) using pure trisodium hydroxycitrate and a very low fat diet. The design thus utilized a realistic diet with rough equivalents of the HCA dosages claimed to be effective in both the human and rat models.
The experimental KMgHCA dosings varied considerably from that of the other two salts. […] As a result, the recalculated HCA doses for the experimental compound were a low dose (KMgHCA L) of 14 mg, an intermediate dose (KMgHCA M) of 28 mg and a high dose (KMgHCA H) of 84 mg per day. The difficulty in calculating the HCA content in this case is not unique inasmuch as there is as of yet no universally accepted method for calculating the HCA content of the various salts. Again, preparations yielded the equivalent of 48 mg HCA per day from KCaHCA and 38.4 mg HCA per day from KHCA.
(§3) Systolic Blood Pressure (SBP): SBP was estimated by tail plethysmography in unanesthetized rats after a brief warming period. Readings were taken approximately one minute apart. To be accepted, SBP measurements had to be virtually stable for a minimum of three consecutive readings.
as §2

[4] = test system: Spontaneously hypertensive rats (SHR); assay: Systolic blood pressure of SHR on chow/table sugar diet (Example 2); assay type: in vivo, rat; details: 100 mg HCA per day in food, control SBP steadily increased
Protocol: as §3
(§4) Spontaneously hypertensive rats (SHR) were placed on a diet composed of regular rat chow (60% w/w) and table sugar (40% w/w). This diet reliably elevates blood pressure in this animal model. One group received 100 mg HCA per day in the form of a new potassium-magnesium hydroxycitrate (different from that used in Example 1) via an added 5 g HCA per kg of food mix. Systolic blood pressure and body weight were tested as in Example 1 on a weekly basis.

[5] = test system: Spontaneously hypertensive rats (SHR); assay: Losartan challenge: SBP response in SHR; assay type: in vivo, rat
Excerpt: Many factors can positively influence blood pressure, e.g., diuretics, antioxidants, regulators of sympathetic/parasympathetic tone, compounds that improve insulin sensitivity and so forth. Therefore, losartan, an angiotensin-2 receptor blocker, was utilized to discover whether the ACE system was involved in the results discussed in Example 1.
as §4
When losartan was injected, the SBP of both groups decreased. At 6 hours, the SBP were essentially the same. […] Thus, HCA appears to decrease angiotensin-2 in rats and to lower elevated SBP. Although insulin regulation likely is a factor in the blood pressure modulating effect of HCA, this evidence argues that inhibition of ACE is also important. […]

[6] = test system: Spontaneously hypertensive rats (SHR); assay: Glucose tolerance test with 0.1 unit regular insulin injected along with glucose in SHR; assay type: in vivo, rat; details: 100 mg HCA per day, at 7.5 minutes
Protocol: as §4
This was viewed as likely positive in that rats gain weight steadily as long as they remain in good health and the SHR at middle age, as used here, lives a relatively short life and its health deteriorates as its blood pressure rises. […] A glucose tolerance test was administered in which 0.1 unit of regular insulin was injected along with glucose. […] This finding indicates increased insulin sensitivity. (FIG. 6)

[7] = Body weight of SHR on chow/table sugar diet (Example 2); assay type: in vivo, rat; details: 100 mg HCA per day in food, p=0.084
Protocol: as §4

[8] = twice a day; diet consisting of 70% glucose and 1% fat; cited from earlier work
[9] = gavaged twice daily, KHCA 38.4 mg HCA per day, KCaHCA 48 mg HCA per day
[10] = high dose (KMgHCA H) 84 mg HCA per day
[11] = intermediate dose (KMgHCA M) 28 mg HCA per day

O=C(O)CC(O)(C(=O)O)C(O)C(=O)O (single isomer, unassigned; (-)) [(−)-hydroxycitrate, (−)-Hydroxycitric acid]
plasma levels of glucose, insulin, or free fatty acids relative to controls [1]: no significant differences

O=C([O-])CC(O)(C(=O)[O-])C(O)C(=O)[O-].[Ca+2].[K+] (centres unmarked) [KCaHCA, potassium-calcium hydroxycitrate]
average insulin concentrations compared to control [2]: did not show a trend toward lower circulating insulin | SBP in earlier study [3]: decrease in SBP | SBP compared to control at the end of eight weeks (Sprague-Dawley Rats; [9]): significant decreases

O=C([O-])CC(O)(C(=O)[O-])C(O)C(=O)[O-].[K+].[K+].[K+] (centres unmarked) [KHCA, potassium hydroxycitrate]
insulin, control versus treatment, Student's t test ([2]; KHCA 38.4 mg HCA per day): showed significance | average insulin concentrations compared to control [2]: lower | SBP compared to control at the end of eight weeks (Sprague-Dawley Rats; [9]): significant decreases

O=C([O-])CC(O)(C(=O)[O-])C(O)C(=O)[O-].[K+].[Mg+2] (centres unmarked) [KMgHCA, potassium-magnesium hydroxycitrate]
SBP from baseline [4]: decrease in SBP from baseline | insulin, control versus treatment, Student's t test ([2]; KMgHCA H 84 mg HCA per day, p=0.058): at the margin of significance | average insulin concentrations compared to control [2]: lower | decrease in SBP after losartan injection ([5]; 100 mg HCA per day, at 6 hours, versus control): −21.7±7.0 | glucose appearance in bloodstream in glucose tolerance test [6]: significantly lesser rise | body weight over three weeks [7]: trend for an increase | SBP compared to control at the end of eight weeks (Sprague-Dawley Rats; [10]): significant decreases | lowering of SBP at the end of 8 weeks (Sprague-Dawley Rats; [10]): over 10 mm Hg | SBP compared to control at the end of eight weeks (Sprague-Dawley Rats; [11]): significant decreases | lowering of SBP at the end of 8 weeks (Sprague-Dawley Rats; [11]): over 10 mm Hg | SBP at the end of 8 weeks (Sprague-Dawley Rats; low dose (KMgHCA L) 14 mg HCA per day): essentially did nothing

CCCCc1nc(Cl)c(CO)n1Cc1ccc(-c2ccccc2-c2nn[nH]n2)cc1 [losartan, reference compound]
SBP after losartan injection ([5]; both groups (control and KMgHCA)): decreased

O=C([O-])CC(O)(C(=O)[O-])C(O)C(=O)[O-].[Na+].[Na+].[Na+] (centres unmarked) [trisodium hydroxycitrate]
lowest dose in rats shown to be efficacious in reducing weight gain [8]: 0.33 mmol/kg
